“Also recorded” adds a separate entry of the source. Like-named read-outs stand apart in the source and are kept apart here.
Tests used:
neointimal formation = conditions: controlled local delivery; rat carotid balloon injury model; cited from earlier work
PDGF β-receptor = molecular target: T1, PDGF β-receptor (Sus scrofa, UniProt F1RL75); test: PDGF induced PDGFR autophosphorylation in intact SMC cells; format: cell-based; conditions: porcine arterial SMC
T1 construct: PDGF-BB stimulated; immunoprecipitated with PDGF beta-receptor specific antiserum R3
Description: Effect of tyrphostins on PDGF induced PDGFR autophosphorylation in intact SMC cells: Subconfluent porcine arterial smooth muscle cells, cultivated in Dulbecco's modified Eagle's medium (DMEM) supplemented with 15% fetal calf serum (FCS), were synchronized for 20 hours in a medium containing 2% FCS. […] After stimulation, the cells were solubilized in Nonidet P-40 (1%) containing lysis buffer.
The analysis of PDGF p-receptor phosphorylation was performed as follows. Cell lysates were subjected to immunoprecipitation using the PDGF β-receptor specific antiserum R3 [5]. The percipitates were subjected to polyacrylamide (7.5%) gel electrophoresis in presence of sodium deducyl sulfate (SDS-PAGE) and were thereafter blotted onto a nitrocellulose membrane (Hybond C-EXTRA, Amersham). Phosphorylated proteins were detected by immunoblotting using the horseradish-peroxidase conjugated phosphotyrosine antibody RC20H (Transduction Laboratories), followed by chemoluminescence-based detection (ECL, Amersham) and autoradiography.
Detection of receptor proteins was performed as follows. Cell lysates were subjected to immunoprecipitation using the PDGF β-receptor specific antiserum R3 [5], as described above, and the percipitates washed three times and thereafter subjected to SDS-PAGE (7.5%) and blotting onto a nitrocellulose membrane (Hybond C-EXTRA, Amersham). Receptor proteins were detected by immunoblotting using the horseradish-peroxidase conjugated donkey anti-rabbit antibody (Amersham), followed by chemoluminescence-based detection (ECL, Amersham) and autoradiography.

[1] = system: human internal mammary artery smooth muscle cells (IMA SMC); test: Inhibition of cell proliferation and recovery, human IMA SMC; format: cell-based
From the text: (§1) Smooth muscle cells (SMC) were obtained under aseptic conditions from porcine abdominal aortas, and human internal mammary arteries (IMA). Specimens from the operating room were transferred on ice to the tissue culture room. Each artery was cut open and the endothelial surface mechanically scraped. The vessels were then cut into 2 mm^2 fragments which were placed in culture dishes with Dulbecco's modified Eagle's medium (DMEM) supplemented with 15% (v/v) fetal calf serum (FCS), 100 u/ml penicillin, 100 μg/ml streptomycin, and 0.2M L-glutamine. The tissue fragments were then placed in an incubator at 37° C. under 9% CO2 atmosphere until SMC outgrowth was detected (typically within 3-7 days). […] For experiments testing the effect of tyrphostins on growth inhibition and recovery (see below), SMC from passages 1-3 were replated in 15 mm wells pretreated with 3 μg/cm^2 fibronectin (Biological Industries, Kibbutz Beit Haemek, Israel) at 15,000 cells/well.
Inhibition of cell proliferation and recovery: Monolayer cell growth inhibition and recovery experiments were repeated 3 or 4 times. Each experiment was performed in triplicate. Approximately 15,000 cells (SMC or EC) in 1 ml of culture medium supplemented with 15% FCS were seeded on day 0 in 15 mm-wells precoated with fibronectin. Cultures were treated with a tyrphostin (10 μM) dissolved in 0.1% DMSO on days 1 and 3. On day 6, cultures were washed and the cells allowed to recover. Typically cells were counted on days 3 and 5 for inhibition, and on days 7, 10 and 15 for recovery, other schedules were also employed as reported below. The medium supplemented with serum (M-199 with ECGS for EC, and DMEM for SMC) was changed every other day throughout the experiment.
FIG. 9 presents the maximal inhibitory and recovery effects on human IMA SMC growth inflicted by 10 or 25 μM of AG1851 and AG1295. Cells were grown in the presence of the specified tyrphostins and were counted after seven days in culture. On day 7 the cultures were washed and the cells allowed to recover. Seven days later they were counted for recovery. The bar graph show the maximal inhibition and the recovery in each experiment and for controls.

[2] = system: porcine aortic smooth muscle cells (SMC); test: Inhibition of cell proliferation and recovery, porcine SMC; format: cell-based; conditions: for inhibition at 10 µM: Sus scrofa
Description: as §1, with “The vessels were then cut into 2 mm^2 fragments which were placed in culture dishes with Dulbecco's modified Eagle's medium (DMEM) supplemented with 15% (v/v) fetal calf serum (FCS), 100 u/ml penicillin, 100 μg/ml streptomycin, and 0.2M L-glutamine.” left out
(§2) Inhibition of cell proliferation and recovery: Monolayer cell growth inhibition and recovery experiments were repeated 3 or 4 times. Each experiment was performed in triplicate. […] Cultures were treated with a tyrphostin (10 μM) dissolved in 0.1% DMSO on days 1 and 3. On day 6, cultures were washed and the cells allowed to recover. Typically cells were counted on days 3 and 5 for inhibition, and on days 7, 10 and 15 for recovery, other schedules were also employed as reported below.

[3] = system: DNA synthesis stimulated by insulin, by epidermal growth factor, or by a combination of both; conditions: cited from earlier work
Swiss 3T3 cells = conditions: read-out: 50% inhibitory concentration, PDGF receptor kinase and PDGF dependent DNA synthesis; cited from earlier work
[4] = system: porcine aorta endothelial cells (EC); conditions: read-out: 50% inhibitory concentration, PDGF receptor kinase and PDGF dependent DNA synthesis; cited from earlier work
[5] = system: fibroblast growth factor-dependent DNA synthesis; conditions: relative to PDGF dependent DNA synthesis; cited from earlier work
[6] = system: epidermal growth factor receptor; conditions: cited from earlier work
[7] = system: porcine endothelial cells (EC); test: Inhibition of cell proliferation and recovery, porcine EC; format: cell-based; conditions: for inhibition at 10 µM: Sus scrofa, Endothelial cell
From the text: Endothelial cells (EC) were isolated from porcine carotid arteries. Using aseptic procedure, both common carotid arteries were isolated, and the distal end of each artery was cannulated through an arteriotomy and ligated. The arteries were then perfused with phosphate buffered saline (PBS) and the proximal end ligated isolating a 5-7 cm long blood-free portion of the artery. The isolated portion of each artery was filled with PBS containing calcium and magnesium and 0.1% collagenase (Boehringer Manneheim, Germany). The segments were excised and incubated for 10 min at 37° C. in sterile bottles containing PBS. […] Cells were seeded on fibronectin-coated dishes at a seeding density of 15,000 cells/well and incubated at 37° C. in 9% CO2. ECGS (25 μg/ml) was added every other day until confluence was observed, typically within 6-8 days.
as §2

[8] = system: stem cell factor receptor (c-Kit); conditions: cited from earlier work
human PDGF β-receptor = conditions: cited from earlier work
human PDGF α-receptor = conditions: cited from earlier work
p60c-src(F527) = conditions: cited from earlier work
[9] = system: src-transformed NIH 3T3 cells; conditions: cited from earlier work
[10] = system: vascular endothelial growth factor receptor KDR; conditions: cited from earlier work
[11] = system: sis-transfected NIH 3T3 cells; conditions: cited from earlier work
[12] = system: porcine aortic endothelial cells; conditions: cited from earlier work

T1 sequence (F1RL75 109-1181): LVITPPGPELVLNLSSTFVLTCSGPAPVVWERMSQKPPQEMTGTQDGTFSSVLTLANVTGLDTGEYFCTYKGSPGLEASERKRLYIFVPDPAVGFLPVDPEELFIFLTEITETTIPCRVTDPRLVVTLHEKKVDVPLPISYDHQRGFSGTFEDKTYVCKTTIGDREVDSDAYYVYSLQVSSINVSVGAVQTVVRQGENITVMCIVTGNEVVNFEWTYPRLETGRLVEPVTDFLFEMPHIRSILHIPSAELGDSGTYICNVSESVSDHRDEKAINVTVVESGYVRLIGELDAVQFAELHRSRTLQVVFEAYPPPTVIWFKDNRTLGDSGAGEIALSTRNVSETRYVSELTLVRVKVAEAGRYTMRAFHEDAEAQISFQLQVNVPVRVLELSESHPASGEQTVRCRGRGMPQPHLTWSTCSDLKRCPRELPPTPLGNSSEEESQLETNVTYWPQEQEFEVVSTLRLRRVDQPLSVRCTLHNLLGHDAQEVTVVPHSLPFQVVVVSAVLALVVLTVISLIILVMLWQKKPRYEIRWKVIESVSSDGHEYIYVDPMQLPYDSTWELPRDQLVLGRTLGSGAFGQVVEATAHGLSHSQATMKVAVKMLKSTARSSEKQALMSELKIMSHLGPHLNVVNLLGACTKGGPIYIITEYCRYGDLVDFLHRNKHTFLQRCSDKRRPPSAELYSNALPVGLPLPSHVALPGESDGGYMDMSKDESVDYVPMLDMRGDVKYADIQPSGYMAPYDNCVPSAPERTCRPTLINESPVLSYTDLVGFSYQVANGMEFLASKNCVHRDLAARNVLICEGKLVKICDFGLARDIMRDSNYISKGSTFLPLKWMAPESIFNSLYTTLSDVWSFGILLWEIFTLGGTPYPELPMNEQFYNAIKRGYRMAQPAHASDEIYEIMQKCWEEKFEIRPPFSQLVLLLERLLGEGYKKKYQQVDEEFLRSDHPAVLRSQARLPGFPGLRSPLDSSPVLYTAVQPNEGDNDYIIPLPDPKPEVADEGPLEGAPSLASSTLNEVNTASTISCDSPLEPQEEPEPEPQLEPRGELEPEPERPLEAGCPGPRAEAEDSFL

## CC(C)(C)c1cc(C=C(C#N)C#N)cc(C(C)(C)C)c1O [AG17]
Neointimal formation
  inhibition of neointimal formation: effectively inhibits neointimal formation

## Cc1cc2ncc(-c3ccccc3)nc2cc1C [AG1295, reference compound]
PDGF β-receptor
  level of PDGF β-receptor protein present in the cells: without affecting the level
PDGF β-receptor; tyrphostin 10 μM, 60 min preincubation, PDGF-BB 100 ng/ml
  inhibition of PDGF-BB induced PDGF β-receptor tyrosine-phosphorylation: completely inhibited
[1]; 25 μM
  reversibility of the effect on IMA SMC upon removal of the tyrphostin: completely reversible
[1]; Homo sapiens, 120 h, read-out: mean reduction / inhibition of IMA SMC proliferation compared to untreated or DMSO-treated cells
  inhibition at 25 µM: 48%
[2]; 10 μM, FIGS. 3-7
  inhibitory effect on porcine SMC growth (in words): very potent growth inhibition effect; also recorded: highly effective in blocking proliferation; also recorded: very effective proliferation inhibitors
[2]; 10 μM, porcine SMC
  toxicity on SMC: low lasting toxicity
[2]; 72 h, read-out: mean reduction in SMC count compared to DMSO treated control cells, 10 μM, by day 3
  inhibition at 10 µM: 46%
[2]; 120 h, read-out: reduction in SMC count / inhibition of SMC growth over control, 10 μM, by day 5 (day given for AG1295 and AG1992)
  inhibition at 10 µM: 78%
[2]; read-out: maximal inhibitory effect on porcine SMC proliferation, FIG. 6 experiment, 10 μM
  inhibition at 10 µM: 65%
[2]; read-out: maximal inhibitory effect on porcine SMC proliferation, FIG. 7 experiment, 10 μM
  inhibition at 10 µM: 81%
[2]; read-out: mean reduction in SMC count compared to control cells (maximal inhibition in SMC growth), Table 2, 10 μM
  inhibition at 10 µM: 78%
[2]; porcine SMC, cultures washed, cells allowed to recover
  reversibility of the inhibitory effect / recovery of SMC growth after washout: completely reversible
[3]
  effect on DNA synthesis stimulated by insulin, by epidermal growth factor, or by a combination of both: weak effects
Swiss 3T3 cells
  IC50: < 5000 nM
[4]
  IC50: < 1000 nM
[5]
  blocking effect on fibroblast growth factor-dependent DNA synthesis: over an order of magnitude weaker blocking effect
[6]
  effect on epidermal growth factor receptor autophosphorylation: no effect
[7]
  reversibility of the inhibitory effect on EC: completely reversible
[7]; 72 h, by day 3, read-out: mean reduction of EC growth compared to controls
  inhibition at 10 µM: ~10%
[7]; 120 h, by day 5, read-out: reduction of EC growth compared to controls
  inhibition at 10 µM: 13.5%
[7]; FIG. 8 experiment, 10 μM, read-out: maximal inhibitory effect on porcine EC proliferation
  inhibition at 10 µM: 22%

## COc1cc2ncc(-c3ccccc3)nc2cc1OC [AG1296]
[8]
  inhibition of signalling of stem cell factor receptor (c-Kit): potently inhibits
Human PDGF β-receptor
  inhibition of signalling of human PDGF β-receptor: potently inhibits
Human PDGF α-receptor
  inhibition of signalling of human PDGF α-receptor: potently inhibits
[3]
  effect on DNA synthesis stimulated by insulin, by epidermal growth factor, or by a combination of both: weak effects
Swiss 3T3 cells
  IC50: < 5000 nM
p60c-src(F527)
  effect on activity of the kinase p60c-src(F527) immunoprecipitated from src-transformed NIH 3T3 cells: no effect
[4]
  IC50: < 1000 nM
[5]
  blocking effect on fibroblast growth factor-dependent DNA synthesis: over an order of magnitude weaker blocking effect
[9]
  effect on src-transformed NIH 3T3 cells: no effect
[10]
  effect on autophosphorylation of KDR: no effect
[6]
  effect on epidermal growth factor receptor autophosphorylation: no effect
[11]
  effect on transformed phenotype of sis-transfected NIH 3T3 cells: reverses the transformed phenotype
[12]
  effect on DNA synthesis induced by vascular endothelial growth factor: no effect
